Consider 27 compounds from patent US11040954B1, “CXCR3 receptor agonists” (RECEPTOS LLC, priority 2016, dated 2021).

As a reminder, the pEC50 is the negative decadic logarithm of the EC50, by convention in mol/L.

pEC50: −log10 of the molar value.

In this test the target is T1, CXCR3 (Homo sapiens, UniProt P49682).
T1 construct: host or cells: CHO-K1 (cAMP Hunter CHOK1 CXCR3 Gi cell line)
T1 sequence (P49682 1-368): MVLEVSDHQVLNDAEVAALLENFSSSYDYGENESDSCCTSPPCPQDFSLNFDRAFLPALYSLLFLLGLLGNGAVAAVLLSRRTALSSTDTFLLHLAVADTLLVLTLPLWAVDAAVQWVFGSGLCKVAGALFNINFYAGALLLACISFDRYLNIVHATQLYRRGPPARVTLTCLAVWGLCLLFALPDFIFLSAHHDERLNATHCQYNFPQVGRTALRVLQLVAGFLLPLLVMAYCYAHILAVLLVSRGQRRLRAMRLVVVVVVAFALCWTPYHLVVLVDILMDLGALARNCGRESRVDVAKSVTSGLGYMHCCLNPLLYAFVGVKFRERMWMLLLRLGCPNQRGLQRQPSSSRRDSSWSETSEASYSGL
As to the kind of experiment: CXCR3 cAMP agonist assay (cAMP Hunter CHOK1 CXCR3 Gi cell line, forskolin-stimulated, HitHunter cAMP detection). Format: cell-based. The settings on record: cAMP Hunter CHOK1 CXCR3 Gi cells, 20 μM forskolin, 30 minutes; read-out: Activity (CXCR3 cAMP agonist assay compound EC50). In outline:
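CHOK1 cells expressing human CXCR3 with Gi coupling, 50,000/well in suspension in HBSS/10 mM HEPES/0.1% BSA pH 7.4, were co-treated with 20 μM forskolin and compound (12-point, 0-10 μM, 1% DMSO) for 30 min. cAMP was read by enzyme-complementation luminescence; CXCL11 dose response set maximum efficacy.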
For the compound `C[C@@H]1CN(C(=O)CCC(=O)N2Cc3ccccc3C[C@H]2C(=O)N[C@@H](CCN)C(=O)Nc2ccc(Cl)c(Cl)c2F)CCN1C` [Compound 15-64], the pEC50 was 6.60 to 7.30.

As to `Cc1cc(NC(=O)[C@H](CCNC2CC2)NC(=O)[C@@H]2Cc3ccccc3CN2C(=O)CCC(=O)c2ccccc2)ccc1Cl` [Compound 16-1, (S)—N—((S)-1-((4-chloro-3-methylphenyl)amino)-4-(cyclopropylamino)-1-oxobutan-2-yl)-2-(4-oxo-4-phenylbutanoyl)-1,2,3,4-tetrahydroisoquinoline-3-carboxamide], the pEC50 is above 7.30.

Take `Cc1cc(NC(=O)[C@H](CCN2CCC(O)CC2)NC(=O)[C@@H]2Cc3ccccc3CN2C(=O)CCC(=O)c2ccccc2)ccc1Cl` [Compound 17-1, (S)—N—((S)-1-((4-chloro-3-methylphenyl)amino)-4-(4-hydroxypiperidin-1-yl)-1-oxobutan-2-yl)-2-(4-oxo-4-phenylbutanoyl)-1,2,3,4-tetrahydroisoquinoline-3-carboxamide]: the pEC50 is above 7.30.

Take `Cc1cc(NC(=O)[C@H](CCC2CCN(C(=O)OC(C)(C)C)CC2)NC(=O)[C@@H]2Cc3ccccc3CN2C(=O)CCC(=O)c2ccccc2)ccc1Cl` [Compound 17-2]: the negative logarithm of the EC50 (pEC50) was 6.30 to 6.60.

For `Cc1cc(NC(=O)[C@H](CCN2CCNC(=O)C2)NC(=O)[C@@H]2Cc3ccccc3CN2C(=O)CCC(=O)c2ccccc2)ccc1Cl` [Compound 17-3], the pEC50 is 6.60 to 7.30.

Consider `Cc1cc(NC(=O)[C@H](CCN2CCC(F)(F)CC2)NC(=O)[C@@H]2Cc3ccccc3CN2C(=O)CCC(=O)c2ccccc2)ccc1Cl` [Compound 17-4], for which the pEC50 was 6.60 to 7.30.

For the compound `CC(=O)N1CCN(CC[C@H](NC(=O)[C@@H]2Cc3ccccc3CN2C(=O)CCC(=O)c2ccccc2)C(=O)Nc2ccc(Cl)c(C)c2)CC1` [Compound 19-1, (S)—N—((S)-4-(4-acetylpiperazin-1-yl)-1-((4-chloro-3-methylphenyl)amino)-1-oxobutan-2-yl)-2-(4-oxo-4-phenylbutanoyl)-1,2,3,4-tetrahydroisoquinoline-3-carboxamide], the pEC50 was 6.30 to 6.60.

`Cc1cc(NC(=O)C2(NC(=O)[C@@H]3Cc4ccccc4CN3C(=O)CCC(=O)c3ccccc3)CCN(CCO)CC2)ccc1Cl` [Compound 20-1, (S)—N-(4-((4-chloro-3-methylphenyl)carbamoyl)-1-(2-hydroxyethyl)piperidin-4-yl)-2-(4-oxo-4-phenylbutanoyl)-1,2,3,4-tetrahydroisoquinoline-3-carboxamide]: the pEC50 is 6.60 to 7.30.

Take `Cc1cc(NC(=O)C(CCC2(N(C)C)COC2)NC(=O)[C@@H]2Cc3ccccc3CN2C(=O)CCC(=O)c2ccccc2)ccc1Cl` (stereo partly drawn) [Compound 21-1, (3S)—N-(1-((4-chloro-3-methylphenyl)amino)-4-(3-(dimethylamino)oxetan-3-yl)-1-oxobutan-2-yl)-2-(4-oxo-4-phenylbutanoyl)-1,2,3,4-tetrahydroisoquinoline-3-carboxamide]: the pEC50 is 6.60 to 7.30.

For `Cc1cc(NC(=O)[C@@H](CC23CC(N)(C2)C3)NC(=O)[C@@H]2Cc3ccccc3CN2C(=O)CCC(=O)c2ccccc2)ccc1Cl` [Compound 22-2, (S)—N—((R)-3-(3-aminobicyclo[1.1.1]pentan-1-yl)-1-((4-chloro-3-methylphenyl)amino)-1-oxopropan-2-yl)-2-(4-oxo-4-phenylbutanoyl)-1,2,3,4-tetrahydroisoquinoline-3-carboxamide], the pEC50 was 6.30 to 6.60.

Consider `O=C(CCC(=O)N1Cc2ccccc2C[C@H]1C(=O)N[C@@H](CCN1CCC(F)(F)CC1)C(=O)Nc1ccc(Cl)c(Cl)c1F)c1ccccc1` [Compound 23-2], for which the pEC50 was 6.60 to 7.30.

In the case of `O=C(CCC(=O)N1Cc2ccccc2C[C@H]1C(=O)N[C@@H](CCN1CCC(F)(F)C1)C(=O)Nc1ccc(Cl)c(Cl)c1F)c1ccccc1` [Compound 23-4], the pEC50 is 6.60 to 7.30.

With `O=C(CCC(=O)N1Cc2ccccc2C[C@H]1C(=O)N[C@@H](CCN1CCCC(F)(F)C1)C(=O)Nc1ccc(Cl)c(Cl)c1F)c1ccccc1` [Compound 23-5], the pEC50 was 6.30 to 6.60.

As for `O=C(CCC(=O)N1Cc2ccccc2C[C@H]1C(=O)N[C@@H](CCN1CC(F)(F)C1)C(=O)Nc1ccc2c(c1)CCC2)c1ccccc1` [Compound 23-6], the pEC50 was 6.60 to 7.30.

Consider `O=C(CCC(=O)N1Cc2ccccc2C[C@H]1C(=O)N[C@@H](CCN1CCC(F)(F)C1)C(=O)Nc1ccc2c(c1)CCC2)c1ccccc1` [Compound 23-7], for which the pEC50 is 6.30 to 6.60.

In the case of `O=C(CCC(=O)N1Cc2ccccc2C[C@H]1C(=O)N[C@@H](CCN1CCCC(F)(F)C1)C(=O)Nc1ccc2c(c1)CCC2)c1ccccc1` [Compound 23-8], the pEC50 is 6.30 to 6.60.

On to `O=C(CCC(=O)N1Cc2ccccc2C[C@H]1C(=O)N[C@@H](CCN1CCS(=O)(=O)CC1)C(=O)Nc1ccc2c(c1)CCC2)c1ccccc1` [Compound 23-9], for which the pEC50 was 6.60 to 7.30.

With `COC1CCN(CC[C@H](NC(=O)[C@@H]2Cc3ccccc3CN2C(=O)CCC(=O)c2ccccc2)C(=O)Nc2ccc(Cl)c(C)c2)CC1` [Compound 24-1, (S)—N—((S)-1-((4-chloro-3-methylphenyl)amino)-4-(4-methoxypiperidin-1-yl)-1-oxobutan-2-yl)-2-(4-oxo-4-phenylbutanoyl)-1,2,3,4-tetrahydroisoquinoline-3-carboxamide], the pEC50 is 6.60 to 7.30.

With `CN1CCN(CC[C@H](NC(=O)[C@@H]2Cc3ccccc3CN2C(=O)CCC(=O)c2ccccc2)C(=O)Nc2ccc3c(c2)CCC3)CC1` [Compound 24-2], the pEC50 was 6.60 to 7.30.

For `CC1(C)CCCCN1C(=O)CCC(=O)N1Cc2ccccc2C[C@H]1C(=O)N[C@@H](CCN1CCC(O)CC1)C(=O)Nc1ccc(Cl)c(Cl)c1F` [Compound 26-1, (S)—N—((S)-1-((3,4-dichloro-2-fluorophenyl)amino)-4-(4-hydroxypiperidin-1-yl)-1-oxobutan-2-yl)-2-(4-(2,2-dimethylpiperidin-1-yl)-4-oxobutanoyl)-1,2,3,4-tetrahydroisoquinoline-3-carboxamide], the pEC50 was above 7.30.

For the compound `CC1(C)CCCCN1C(=O)CCC(=O)N1Cc2ccccc2C[C@H]1C(=O)N[C@H](CCN1CCC(O)CC1)C(=O)Nc1ccc(Cl)c(Cl)c1F` [Compound 26-2], the pEC50 was above 7.30.

As for `CC1(C)CCCN(C(=O)CCC(=O)N2Cc3ccccc3C[C@H]2C(=O)N[C@@H](CCN2CCC(O)CC2)C(=O)Nc2ccc(Cl)c(Cl)c2F)C1` [Compound 26-3], the pEC50 is above 7.30.

Consider `Cc1cnc(NC(=O)[C@H](CCN)NC(=O)[C@@H]2Cc3ccccc3CN2C(=O)CCC(=O)c2ccccc2)cc1Cl` [Compound 27-1, (S)—N—((S)-4-amino-1-((4-chloro-5-methylpyridin-2-yl)amino)-1-oxobutan-2-yl)-2-(4-oxo-4-phenylbutanoyl)-1,2,3,4-tetrahydroisoquinoline-3-carboxamide], for which the pEC50 is above 7.30.

In the case of `NCC[C@H](NC(=O)[C@@H]1Cc2ccccc2CN1C(=O)CCC(=O)c1ccccc1)C(=O)Nc1cc(Cl)c(F)c(Cl)c1` [Compound 27-2], the pEC50 was 6.30 to 6.60.

For the compound `N#Cc1ccccc1NC(=O)[C@H](CCN)NC(=O)[C@@H]1Cc2ccccc2CN1C(=O)CCC(=O)c1ccccc1` [Compound 27-4], the pEC50 was above 7.30.

Turning to `Cc1c(F)cc(NC(=O)[C@H](CCN)NC(=O)[C@@H]2Cc3ccccc3CN2C(=O)CCC(=O)c2ccccc2)cc1F` [Compound 27-5], the pEC50 is above 7.30.

For `NCC[C@H](NC(=O)[C@@H]1Cc2ccccc2CN1C(=O)CCC(=O)c1ccccc1)C(=O)Nc1cc(F)c(Cl)c(Cl)c1` [Compound 27-6], the pEC50 is 6.60 to 7.30.
